Patent US4795743A, “2'-deamino-2'-hydroxyistamycin Bo derivatives of low toxicity” (Zaidan Hojin Biseibutsu Kagaku Kenkyu Kai, priority 1986, dated 1989)
≈ marks a conversion by molar mass, not a printed value. Read-outs that look alike come from different tables or passages of the source.

Columns and labels:
[1] = system: Staphylococcus aureus 209P; assay: Antibacterial spectrum, standard serial dilution method of Japan Society of Chemotherapy; type: cell-based; conditions: read-out: Minimum Growth Inhibitory Concentration
[2] = system: Staphylococcus aureus Smith; assay: Antibacterial spectrum, standard serial dilution method; type: cell-based; conditions: read-out: Minimum Growth Inhibitory Concentration
[3] = system: Staphylococcus aureus Ap 01; assay: as above; type: cell-based; conditions: AP01, 18 h, read-out: Minimum Growth Inhibitory Concentration
[4] = system: Staphylococcus epidermidis 109; assay: as above; type: cell-based; conditions: Staphylococcus epidermidis, 109, 18 h, read-out: Minimum Growth Inhibitory Concentration
[5] = system: Micrococcus flavus FDA 16; assay: as above; type: cell-based; conditions: read-out: Minimum Growth Inhibitory Concentration
[6] = system: Sarcina lutea PCI 1001; assay: as above; type: cell-based; conditions: Micrococcus luteus, read-out: Minimum Growth Inhibitory Concentration
[7] = system: Bacillus anthracis; assay: microbe, parasite or virus in culture; type: cell-based; conditions: 18 h, read-out: Minimum Growth Inhibitory Concentration
[8] = system: Bacillus subtilis NRRL B-558; assay: Antibacterial spectrum, standard serial dilution method; type: cell-based; conditions: read-out: Minimum Growth Inhibitory Concentration
[9] = system: Corynebacterium bovis 1810; assay: as above; type: cell-based; conditions: Corynebacterium bovis 1810; Muller-Hinton medium, 37° C., 18 hours; read-out: Minimum Growth Inhibitory Concentration
[10] = system: Mycobacterium smegmatis ATCC 607; assay: as above; type: cell-based; conditions: Mycolicibacterium smegmatis, ATCC607; Mycobacterium smegmatis ATCC 607; Muller-Hinton medium, 37° C., 18 hours; read-out: Minimum Growth Inhibitory Concentration
[11] = system: Escherichia coli K-12; assay: as above; type: cell-based; conditions: read-out: Minimum Growth Inhibitory Concentration
[12] = system: Escherichia coli K-12 R5; assay: as above; type: cell-based; conditions: K12R5, 18 h, read-out: Minimum Growth Inhibitory Concentration
[13] = system: Escherichia coli K-12 R388; assay: as above; type: cell-based; conditions: K12R388, 18 h, read-out: Minimum Growth Inhibitory Concentration
[14] = system: Escherichia coli K-12 J5 R11-2; assay: as above; type: cell-based; conditions: K12J5R112, 18 h, read-out: Minimum Growth Inhibitory Concentration
[15] = system: Escherichia coli K-12 ML1410; assay: as above; type: cell-based; conditions: read-out: Minimum Growth Inhibitory Concentration
[16] = system: Escherichia coli K-12 LA290 R64; assay: as above; type: cell-based; conditions: K12LA290R64, 18 h, read-out: Minimum Growth Inhibitory Concentration
[17] = system: Shigella sonnei; assay: as above; type: cell-based; conditions: Muller-Hinton medium, 37° C., 18 hours, read-out: Minimum Growth Inhibitory Concentration
[18] = system: Salmonella typhi T-63; assay: as above; type: cell-based; conditions: Salmonella enterica, 18 h, read-out: Minimum Growth Inhibitory Concentration
[19] = system: Proteus rettgeri GN311; assay: as above; type: cell-based; conditions: Providencia rettgeri, GN311, 18 h, read-out: Minimum Growth Inhibitory Concentration
[20] = system: Proteus rettgeri GN466; assay: as above; type: cell-based; conditions: Providencia rettgeri; Proteus rettgeri GN466; Muller-Hinton medium, 37° C., 18 hours; read-out: Minimum Growth Inhibitory Concentration
[21] = system: Serratia sp. SOU; assay: as above; type: cell-based; conditions: Serratia, 18 h, read-out: Minimum Growth Inhibitory Concentration
[22] = system: Serratia sp. 4; assay: as above; type: cell-based; conditions: Muller-Hinton medium, 37° C., 18 hours, read-out: Minimum Growth Inhibitory Concentration
[23] = system: Providencia sp. Pv16; assay: as above; type: cell-based; conditions: Providencia, SP.PV16, 18 h, read-out: Minimum Growth Inhibitory Concentration
[24] = system: Providencia sp. 2991; assay: as above; type: cell-based; conditions: read-out: Minimum Growth Inhibitory Concentration
[25] = system: Pseudomonas aeruguinosa No.12; assay: as above; type: cell-based, Pseudomonas aeruginosa; conditions: Muller-Hinton medium, 37° C., 18 hours, read-out: Minimum Growth Inhibitory Concentration
[26] = system: Pseudomonas aeruguinosa H9; assay: as above; type: cell-based, Pseudomonas aeruginosa; conditions: Pseudomonas aeruguinosa H9; Muller-Hinton medium, 37° C., 18 hours; read-out: Minimum Growth Inhibitory Concentration
[27] = system: Pseudomonas aeruguinosa H11; assay: as above; type: cell-based, Pseudomonas aeruginosa; conditions: Muller-Hinton medium, 37° C., 18 hours, read-out: Minimum Growth Inhibitory Concentration
[28] = system: Pseudomonas aeruguinosa TI-13; assay: as above; type: cell-based, Pseudomonas aeruginosa; conditions: TI13; Pseudomonas aeruguinosa TI-13; Muller-Hinton medium, 37° C., 18 hours; read-out: Minimum Growth Inhibitory Concentration
[29] = system: Pseudomonas aeruguinosa GN315; assay: as above; type: cell-based, Pseudomonas aeruginosa; conditions: Pseudomonas aeruguinosa GN315; Muller-Hinton medium, 37° C., 18 hours; read-out: Minimum Growth Inhibitory Concentration
[30] = system: Pseudomonas aeruguinosa 99; assay: as above; type: cell-based, Pseudomonas aeruginosa; conditions: Muller-Hinton medium, 37° C., 18 hours, read-out: Minimum Growth Inhibitory Concentration
[31] = system: Pseudomonas aeruguinosa B-13; assay: as above; type: cell-based, Pseudomonas aeruginosa; conditions: B13, Muller-Hinton medium, 37° C., 18 hours, read-out: Minimum Growth Inhibitory Concentration
[32] = system: Pseudomonas aeruguinosa K-Ps 102; assay: as above; type: cell-based, Pseudomonas aeruginosa; conditions: KPS102; Pseudomonas aeruguinosa K-Ps 102; Muller-Hinton medium, 37° C., 18 hours; read-out: Minimum Growth Inhibitory Concentration
[33] = system: mice; assay: Acute toxicity by intravenous injection in mice; conditions: mice, intravenous injection, 200 mg/kg

SMILES	MIC [3] [µg/mL]	MIC [4] [µg/mL]	MIC [7] [µg/mL]	MIC [9] [µg/mL]	MIC [10] [µg/mL]	MIC [12] [µg/mL]	MIC [13] [µg/mL]	MIC [14] [µg/mL]	MIC [16] [µg/mL]	MIC [17] [µg/mL]	MIC [18] [µg/mL]	MIC [19] [µg/mL]	MIC [20] [µg/mL]	MIC [21] [µg/mL]	MIC [22] [µg/mL]	MIC [23] [µg/mL]	MIC [25] [µg/mL]	MIC [26] [µg/mL]	MIC [27] [µg/mL]	MIC [28] [µg/mL]	further results
CNCC1CCC(O)C(OC2C(N)CC(OC)C(N(C)C(=O)CCN)C2O)O1 (stereo not drawn) [Compound No. 3, 4-N-(β-Alanyl)-2'-deamino-2'-hydroxyistamycin Bo]	6.25 (≈ 15.5 µM)	3.13 (≈ 7.74 µM)	3.13 (≈ 7.74 µM)	12.5 (≈ 30.9 µM)	25 (≈ 61.8 µM)	3.13 (≈ 7.74 µM)	3.13 (≈ 7.74 µM)	3.13 (≈ 7.74 µM)	3.13 (≈ 7.74 µM)	6.25 (≈ 15.5 µM)	1.56 (≈ 3.86 µM)	3.13 (≈ 7.74 µM)	0.78 (≈ 1.93 µM)	3.13 (≈ 7.74 µM)	100 (≈ 247 µM)	3.13 (≈ 7.74 µM)	100 (≈ 247 µM)	50 (≈ 124 µM)	100 (≈ 247 µM)	100 (≈ 247 µM)	MIC ([1]; 209P, 18 h): 6.25 µg/mL (≈ 15.5 µM); MIC ([2]; 18 h): 3.13 µg/mL (≈ 7.74 µM); MIC ([5]; Micrococcus flavus, FDA16, 18 h): 6.25 µg/mL (≈ 15.5 µM); MIC ([6]; PCI1001, 18 h): 3.13 µg/mL (≈ 7.74 µM); MIC ([8]; Bacillus subtilis, NRRLB558, 18 h): 3.13 µg/mL (≈ 7.74 µM); MIC ([11]; K12, 18 h): 3.13 µg/mL (≈ 7.74 µM); MIC ([15]; K12ML1410, E. coli K-12 ML1410, Muller-Hinton medium, 37° C., 18 hours): 12.5 µg/mL (≈ 30.9 µM); MIC ([24]; Providencia sp. 2991, Muller-Hinton medium, 37° C., 18 hours): 12.5 µg/mL (≈ 30.9 µM); MIC [29]: 50 µg/mL (≈ 124 µM); MIC [30]: > 100 µg/mL; MIC [31]: 100 µg/mL (≈ 247 µM); MIC [32]: 50 µg/mL (≈ 124 µM); acute toxicity (survival, symptoms) [33]: survived without showing any sympton of toxicity
CNCC1CCC(O)C(OC2C(N)CC(OC)C(N(C)C(=O)CN)C2O)O1 (stereo not drawn) [Compound No. 1, 2'-Deamino-2'-hydroxyistamycin B]	6.25 (≈ 16 µM)	6.25 (≈ 16 µM)	12.5 (≈ 32 µM)	3.13 (≈ 8.02 µM)	25 (≈ 64 µM)	3.13 (≈ 8.02 µM)	3.13 (≈ 8.02 µM)	1.56 (≈ 4 µM)	3.13 (≈ 8.02 µM)	6.25 (≈ 16 µM)	1.56 (≈ 4 µM)	6.25 (≈ 16 µM)	3.13 (≈ 8.02 µM)	6.25 (≈ 16 µM)	> 100	6.25 (≈ 16 µM)	100 (≈ 256 µM)	> 100	> 100	100 (≈ 256 µM)	MIC ([1]; S. aureus 209P, Muller-Hinton medium, 37° C., 18 hours): 3.13 µg/mL (≈ 8.02 µM); MIC ([2]; S. aureus Smith, Muller-Hinton medium, 37° C., 18 hours): 3.13 µg/mL (≈ 8.02 µM); MIC ([5]; FDA16, Micrococcus flavus FDA 16, Muller-Hinton medium, 37° C., 18 hours): 25 µg/mL (≈ 64 µM); MIC ([6]; PCI1001, Sarcina lutea PCI 1001, Muller-Hinton medium, 37° C., 18 hours): 3.13 µg/mL (≈ 8.02 µM); MIC ([8]; NRRLB558, Bacillus subtilis NRRL B-558, Muller-Hinton medium, 37° C., 18 hours): 3.13 µg/mL (≈ 8.02 µM); MIC ([11]; K12, E. coli K-12, Muller-Hinton medium, 37° C., 18 hours): 3.13 µg/mL (≈ 8.02 µM); MIC ([15]; K12ML1410, 18 h): 6.25 µg/mL (≈ 16 µM); MIC ([24]; Providencia, SP.2991, 18 h): 12.5 µg/mL (≈ 32 µM); MIC [29]: 100 µg/mL (≈ 256 µM); MIC [30]: > 100 µg/mL; MIC [31]: > 100 µg/mL; MIC [32]: > 100 µg/mL; acute toxicity (survival, symptoms) [33]: survived without showing any sympton of toxicity
